Legend:
Test in all cases: relative viability (nuclei count vs DMSO), 5 days (fraction); higher = more cells survive
[1] = compound: Cn1cc(-c2cnn3c(N)c(Br)c([C@@H]4CCCNC4)nc23)cn1
Summary of the method: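 Five library-drug doses, separated by factors of √10, were pinned into 1536-well plates holding lung cancer cell lines after an overnight stay at 37 °C. Cells were fixed, permeabilised and Hoechst-stained in one step after 5 days without medium change, then imaged at 4×. Viability compares treated-well with vehicle-well nuclei, counted in MetaXpress, as a median across plates. Passing plates had control CV below 25% and at least one doubling.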

[2] = compound: Cn1cc(-c2cnn3c(N)c(Br)c([C@@H]4CCCNC4)nc23)cn1 + N=C(N)NC(=N)NCCc1ccccc1 [Phenformin] (partner 250 µM)
Summary of the method: (§1)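 Dosing by pin tool came one day after lung cancer cell lines were seeded in 1536-well plates, using either one drug or a fixed anchor-drug dose plus five library-drug doses (not always all listed) in √10 steps. After 5 days, nuclei were counted on 4× images. Relative viability is treated-well nuclei count divided by vehicle-well nuclei count, and values are medians of duplicate plates.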

[3] = compound: Cn1cc(-c2cnn3c(N)c(Br)c([C@@H]4CCCNC4)nc23)cn1 + COc1cccc2cc(-c3nc([C@H]4CC[C@H](C(=O)O)CC4)n4ncnc(N)c34)[nH]c12 [OSI-027] (partner 0.5 µM)
Summary of the method: as §1

[4] = compound: Cn1cc(-c2cnn3c(N)c(Br)c([C@@H]4CCCNC4)nc23)cn1 + CC(=O)Nc1cccc(-n2c(=O)n(C3CC3)c(=O)c3c(Nc4ccc(I)cc4F)n(C)c(=O)c(C)c32)c1 [Trametinib] (partner 0.02 µM)
Summary of the method: as §1

| Cell Line | relative viability ([1]; 0.05 µM) | relative viability ([1]; 0.1581 µM) | relative viability ([1]; 0.5 µM) | relative viability ([1]; 1.581 µM) | relative viability ([1]; 5 µM) | relative viability ([2]; first compound 0.05 µM) | relative viability ([2]; first compound 0.1581 µM) | relative viability ([2]; first compound 0.5 µM) | relative viability ([2]; first compound 1.581 µM) | relative viability ([2]; first compound 5 µM) | relative viability ([3]; first compound 0.05 µM) | relative viability ([3]; first compound 0.1581 µM) | relative viability ([3]; first compound 0.5 µM) | relative viability ([3]; first compound 1.581 µM) | relative viability ([3]; first compound 5 µM) | relative viability ([4]; first compound 0.05 µM) | relative viability ([4]; first compound 0.1581 µM) | relative viability ([4]; first compound 0.5 µM) | relative viability ([4]; first compound 1.581 µM) | relative viability ([4]; first compound 5 µM) |
| --- | --- | --- | --- | --- | --- | --- | --- | --- | --- | --- | --- | --- | --- | --- | --- | --- | --- | --- | --- | --- |
| LOU-NH91 | 0.949 | 0.985 | 0.937 | 0.952 | 0.811 | 0.668 | 0.657 | 0.679 | 0.706 | 0.562 | 0.752 | 0.711 | 0.684 | 0.727 | 0.701 | 0.804 | 0.776 | 0.751 | 0.749 | 0.665 |
| LU99A | 0.952 | 0.985 | 0.901 | 0.949 | 0.926 | 0.749 | 0.789 | 0.766 | 0.802 | 0.582 | 0.285 | 0.309 | 0.242 | 0.261 | 0.207 | 0.464 | 0.572 | 0.599 | 0.492 | 0.518 |
| LXF-289 | 1.03 | 1.14 | 1.03 | 1.01 | 1.06 | 0.525 | 0.57 | 0.496 | 0.486 | 0.528 | 0.853 | 0.896 | 0.82 | 0.82 | 0.766 | 0.712 | 0.71 | 0.662 | 0.62 | 0.673 |
| NCI-H23 | 0.91 | 1.02 | 0.925 | 0.573 | 0.272 | 0.834 | 0.713 | 0.835 | 0.747 | 0.187 | 0.589 | 0.549 | 0.506 | 0.491 | 0.268 | 0.364 | 0.401 | 0.304 | 0.355 | 0.178 |
| NCI-H322M | 0.766 | 0.842 | 0.863 | 0.684 | 0.408 | 0.681 | 0.595 | 0.717 | 0.474 | 0.254 | 0.46 | 0.356 | 0.466 | 0.354 | 0.242 | 0.553 | 0.495 | 0.519 | 0.491 | 0.391 |
| NCI-H358 | 0.988 | 1.1 | 0.877 | 0.771 | 0.749 | 0.293 | 0.344 | 0.308 | 0.216 | 0.261 | 0.808 | 0.787 | 0.56 | 0.616 | 0.743 | 0.132 | 0.115 | 0.122 | 0.102 | 0.121 |
| NCI-H1299 | 1.03 | 1.07 | 1.01 | 0.926 | 0.795 | – | – | – | – | – | – | – | – | – | – | – | – | – | – | – |
| NCI-H1563 | 0.941 | 0.878 | 0.966 | 0.942 | 0.873 | 0.593 | 0.658 | 0.642 | 0.614 | 0.605 | 0.737 | 0.779 | 0.691 | 0.711 | 0.703 | – | – | – | – | – |
| NCI-H1648 | 0.926 | 0.958 | 0.669 | 0.749 | 0.83 | – | – | – | – | – | 0.249 | 0.235 | – | 0.258 | 0.261 | 0.443 | 0.478 | 0.421 | 0.435 | 0.515 |
| NCI-H1703 | 0.925 | 0.664 | 0.529 | 0.347 | 0.159 | – | – | – | – | – | – | – | – | – | – | – | – | – | – | – |

Source: the supplement of paper PMC10307832
